Measurements: patent US20020051978A1, “Methods and compositions for the identification, assessment, prevention and therapy of human cancers” (priority 2000, published 2002)
“And” between values parts separate entries of the source, which are not always exact repeats. Identical values can stand only once. Like-named read-outs stand apart in the source and are kept apart here.

Legend:
[1] = test system: 60 cancer cell lines (NCI 60 cancer cell line series); assay: NCI-DTP in vitro cancer screen, sulforhodamine B (SRB) growth inhibition, 48 hour exposure; format: cell-based, human; set-up: key to sensitivity class Ovarian OVCAR-8 CL6005 / sensitivity class Ovarian SK-OV-3 CL6011 / sensitivity class Prostate DU-145 CL11003 / sensitivity class NSCLC NCI-H522 CL1003 / sensitivity class Ovarian IGROV1 CL6010 / sensitivity class Ovarian OVCAR-4 CL6002 / sensitivity class Prostate PC-3(I) CL11001 / sensitivity class Renal A498 CL9013 / sensitivity class Renal SN12C CL9008: sensitivity class: 1 = Low, 2 = Medium, 3 = High
In short: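 Sixty NCI-DTP cancer lines plated at line-specific densities, dosed on day 1 in duplicate with 5 concentrations at ten-fold intervals. After 48 h exposure, cell mass read by SRB staining; GI50 (50% growth inhibition) taken from dose-response curves and expressed as -log GI50.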

[2] = test system: 60 cancer cell lines (NCI 60 cancer cell line series); conditions: cited from earlier work

SMILES: CN(Cc1cnc2nc(N)nc(N)c2n1)c1ccc(C(=O)N[C@@H](CCC(=O)O)C(=O)O)cc1 [Methotrexate]
- classification of cell line as Low(1), Medium(2) or High(3) sensitivity to compound ([1]; Breast BT-549 (CL5013)): 1
- classification of cell line as Low(1), Medium(2) or High(3) sensitivity to compound ([1]; Breast HS-578T CL5006): 1
- classification of cell line as Low(1), Medium(2) or High(3) sensitivity to compound ([1]; Breast MCF7/ADRr (CL5002)): 2
- classification of cell line as Low(1), Medium(2) or High(3) sensitivity to compound ([1]; Breast MDA-MB-231 CL5005): 1
- classification of cell line as Low(1), Medium(2) or High(3) sensitivity to compound ([1]; Breast T-47D (CL5014)): 1
- classification of cell line as Low(1), Medium(2) or High(3) sensitivity to compound ([1]; CNS SF-268 CL12014): 2
- classification of cell line as Low(1), Medium(2) or High(3) sensitivity to compound ([1]; CNS SF-295 CL12015): 3
- classification of cell line as Low(1), Medium(2) or High(3) sensitivity to compound ([1]; CNS SF-539 CL12016): 3
- classification of cell line as Low(1), Medium(2) or High(3) sensitivity to compound ([1]; CNS U251(I) CL12009): 2
- classification of cell line as Low(1), Medium(2) or High(3) sensitivity to compound ([1]; Colon COLO-250 CL4010): 2
- classification of cell line as Low(1), Medium(2) or High(3) sensitivity to compound ([1]; Colon HCC-2998 (CL4002)): 2
- classification of cell line as Low(1), Medium(2) or High(3) sensitivity to compound ([1]; Colon HCT-15 CL4015): 3
- classification of cell line as Low(1), Medium(2) or High(3) sensitivity to compound ([1]; Colon HCT-116 (CL4003)): 3
- classification of cell line as Low(1), Medium(2) or High(3) sensitivity to compound ([1]; Colon KM12 (CL4017)): 2
- classification of cell line as Low(1), Medium(2) or High(3) sensitivity to compound ([1]; Leukemia HL-60(I) (CL7008)): 2
- classification of cell line as Low(1), Medium(2) or High(3) sensitivity to compound ([1]; Leukemia K562(I) CL7005): 3
- classification of cell line as Low(1), Medium(2) or High(3) sensitivity to compound ([1]; Leukemia RPMI-8226(I) (CL7010)): 2
- classification of cell line as Low(1), Medium(2) or High(3) sensitivity to compound ([1]; Melanoma LOX IMVI CL10001): 3
- classification of cell line as Low(1), Medium(2) or High(3) sensitivity to compound ([1]; Melanoma SK-MEL-2 (CL10005)): 1
- classification of cell line as Low(1), Medium(2) or High(3) sensitivity to compound ([1]; Melanoma SK-MEL-5 (CL10007)): 2
- classification of cell line as Low(1), Medium(2) or High(3) sensitivity to compound ([1]; Melanoma SK-MEL-28 (CL10008)): 1
- classification of cell line as Low(1), Medium(2) or High(3) sensitivity to compound ([1]; Melanoma UACC-62 (CL10020)): 3
- classification of cell line as Low(1), Medium(2) or High(3) sensitivity to compound ([1]; NSCLC A549/ATCC (CL1004)): 3
- classification of cell line as Low(1), Medium(2) or High(3) sensitivity to compound ([1]; NSCLC EKVX (CL1008)): 1
- classification of cell line as Low(1), Medium(2) or High(3) sensitivity to compound ([1]; NSCLC HOP-62 (CL1026)): 2
- classification of cell line as Low(1), Medium(2) or High(3) sensitivity to compound ([1]; NSCLC HOP-92 (CL1029)): 1
- classification of cell line as Low(1), Medium(2) or High(3) sensitivity to compound ([1]; NSCLC NCI-H226 CL1013): 1
- sensitivity class NSCLC NCI-H23(I) CL1001 ([1]; cell line NSCLC NCI-H23(I), CL1001): 2
- sensitivity class NSCLC NCI-H332M CL1017 ([1]; cell line NSCLC NCI-H332M, CL1017): 2
- sensitivity class NSCLC NCI-H460 CL1021 ([1]; cell line NSCLC NCI-H460, CL1021): 3
- sensitivity class Ovarian IGROV1 CL6010 ([1]; cell line Ovarian IGROV1, CL6010): 2
- sensitivity class Ovarian OVCAR-3 CL6001 ([1]; cell line Ovarian OVCAR-3, CL6001): 2
- sensitivity class Ovarian OVCAR-4 CL6002 ([1]; cell line Ovarian OVCAR-4, CL6002): 1
- sensitivity class Ovarian OVCAR-5 CL6003 ([1]; cell line Ovarian OVCAR-5, CL6003): 2
- sensitivity class Prostate DU-145 CL11003 ([1]; cell line Prostate DU-145, CL11003): 2
- sensitivity class Renal A498 CL9013 ([1]; cell line Renal A498, CL9013): 1
- sensitivity class Renal ACHN CL9023 ([1]; cell line Renal ACHN, CL9023): 2
- sensitivity class Renal RXF-393 CL9016 ([1]; cell line Renal RXF-393, CL9016): 1
- sensitivity class Renal SN12C CL9008 ([1]; cell line Renal SN12C, CL9008): 3
- sensitivity class Renal TK10 CL9024 ([1]; cell line Renal TK10, CL9024): 1
- sensitivity class Renal UO-31 CL9004 ([1]; cell line Renal UO-31, CL9004): 2
- -Log (GI50) ([2]; Breast MCF7/ADRr (CL5002)): 7.3 and 7.0
- -Log (GI50) ([2]; CNS SF-268 CL12014): 7.5 and 7.3
- -Log (GI50) ([2]; Colon COLO-250 CL4010): 6.2 and 6.0
- -Log (GI50) ([2]; Colon HCC-2998 (CL4002)): 7.0 and 6.9
- -Log (GI50) ([2]; Colon HT29(I) CL4001): 7.7 and 7.5
- -Log (GI50) ([2]; Colon KM12 (CL4017)): 7.4 and 7.3
- -Log (GI50) ([2]; Colon SW-620 (CL4009)): 7.2 and 7.5
- -Log (GI50) ([2]; Leukemia CCRF-CEM(I) (CL7003)): 7.4 and 7.5
- -Log (GI50) ([2]; Leukemia HL-60(I) (CL7008)): 7.4
- -Log (GI50) ([2]; Leukemia MOLT-4 (CL7006)): 7.6 and 7.5
- -Log (GI50) ([2]; Leukemia RPMI-8226(I) (CL7010)): 6.9 and 7.1
- -Log (GI50) ([2]; Melanoma M14 (CL10014)): 7.5
- -Log (GI50) ([2]; Melanoma MALME-3M CL10002): 5.4 and 5.5
- -Log (GI50) ([2]; Melanoma SK-MEL-5 (CL10007)): 7.2 and 7.0
- -Log (GI50) ([2]; Melanoma SK-MEL-28 (CL10008)): 5.3 and 5.4
- -Log (GI50) ([2]; NSCLC EKVX (CL1008)): 5.0
- -Log (GI50) ([2]; NSCLC HOP-92 (CL1029)): 5.1
- -Log (GI50) ([2]; NSCLC NCI-H332M CL1017): 6.4 and 6.3
- -Log (GI50) ([2]; Prostate DU-145 CL11003): 7.6 and 7.3
- -Log (GI50) ([2]; Renal 786-O CL9018): 7.5
